Publication PMC8507746, “The FHP01 DDX3X Helicase Inhibitor Exerts Potent Anti-Tumor Activity In Vivo in Breast Cancer Pre-Clinical Models” (Cancers, 2021)

Legend:
[1] = Tolerability in xenograft study: body weight and organ histology; assay type: in vivo, athymic nude mice
Protocol: Animal experiments were performed in accordance with current Italian legislation and the animal protocol has been reviewed and approved by Italian Ministero della Salute (authorization n. 886/2020-PR). The study was designed to verify the effect of newly synthetized molecule with DDX3X inhibitor activity administered via i.p at a concentration of 45 mg/kg on the tumor growth of xenograft MDA MB 231 human breast cancer cells. In the study, n refers to the number of tumors expressed on both flanks of the animals. The sample size was calculated by g-power calculator placing a predictable large (2-fold increase) effect size, alpha as 0.05, and a confidence interval of 95% and we set our experimental unit number of 10 (corresponding to 5 animals). Total number of animals used in the study was 10. Six-week-old athymic nude mice were purchased from Charles River Laboratories. Five animals in each cage acclimatized in our animal facilities for 5 days in individually ventilated cages. Animals were fed with the lab diet ad libitum and water was accessible at all times and kept under standard specific pathogen-free conditions of 12 h light/dark cycle. Observational analysis was performed at the beginning of experimental procedure to ensure animal wellbeing (Table S1). […]

SKBR3 cells = test: Cell viability / cytotoxicity assay (cell counting); assay type: cell-based; details: Homo sapiens, SK-BR-3; SKBR3, 72 h
Protocol: (§1) Cells were seeded at 3–5 × 10^4 cells/well density (depending on cell lines) in 12-well plates, in triplicate, and maintained at 37 °C in 5% CO2. After 24 h, cells were treated with different concentrations of indicated drugs in a range from 0 to 100 μM (0, 0.1, 1, 10, 50, 100 μM). After 72 h incubation, cells were washed in PBS and harvested. Cell number of each sample was determined with Z2 Coulter Counter (Beckman Coulter, Brea, CA, USA), in triplicate. Data about cell viability were plotted in GraphPad Prism 8.0 software (GraphPad Software, San Diego, CA, USA) to draw dose-response curve and to calculate IC50.

T47D cells = test: as above; assay type: cell-based; details: Homo sapiens, 72 h
Protocol: as §1

[2] = as above; assay type: cell-based; details: human, MCF10A control cells
Protocol: as §1

MCF7 cells = test: as above; assay type: cell-based; details: Homo sapiens, MCF7, 72 h
Protocol: as §1

PBMCs = test: Cell viability assay in peripheral blood mononuclear cells; assay type: cell-based; details: up to a concentration of 50 μM, 72 h
Protocol: Two days before the assay, phytohemagglutinin-A (PHA) 2 µg/mL was added to the PBMC culture. Cells were seeded at 13 × 10^4 cells/well in triplicate and maintained at 37 °C in 5% CO2. After 24 h, cells were treated with 10 μM and 50 μM of indicated drugs. After 72 h incubation, cells were washed in PBS and harvested. Cell number of each sample was determined with Z2 Coulter Counter (Beckman Coulter), in triplicate. Data about cell viability were plotted in GraphPad Prism 8.0 software 100% viability corresponding to vehicle (DMSO) treated PBMCs.

[3] = system: MDA MB 231 tumor xenografts; test: MDA MB 231 tumor xenograft growth in athymic nude mice; assay type: in vivo; details: for mean tumor volume: 45 mg/kg i.p. 3 times a week
Protocol: Animal experiments were performed in accordance with current Italian legislation and the animal protocol has been reviewed and approved by Italian Ministero della Salute (authorization n. 886/2020-PR). The study was designed to verify the effect of newly synthetized molecule with DDX3X inhibitor activity administered via i.p at a concentration of 45 mg/kg on the tumor growth of xenograft MDA MB 231 human breast cancer cells. In the study, n refers to the number of tumors expressed on both flanks of the animals. The sample size was calculated by g-power calculator placing a predictable large (2-fold increase) effect size, alpha as 0.05, and a confidence interval of 95% and we set our experimental unit number of 10 (corresponding to 5 animals). Total number of animals used in the study was 10. Six-week-old athymic nude mice were purchased from Charles River Laboratories. Five animals in each cage acclimatized in our animal facilities for 5 days in individually ventilated cages. Animals were fed with the lab diet ad libitum and water was accessible at all times and kept under standard specific pathogen-free conditions of 12 h light/dark cycle. Observational analysis was performed at the beginning of experimental procedure to ensure animal wellbeing (Table S1).
To establish xenograft tumors, MDA MB 231 cells were cultured in media as described above. On the day of experiment, cells (2.8 × 10^6) were suspended in 150 μL PBS 1:1 Matrigel and injected subcutaneously on both size of the flank region of nude mice. In order to determine tumor volume by manual caliper, the greatest longitudinal diameter (length) and the greatest transverse diameter (width) were determined. Tumor volumes based on caliper measurements were calculated by the modified ellipsoidal formula Tumor volume = 1/2(length × width^2).
Group allocation and treatments: once tumors reached a mean size of 24.82 ± 2.56 mm^3, animals were allocated in two groups by minimization strategy according to tumor size: the treatment group received 100 μL of a 45 mg/kg FHP01 suspended in a vehicle consisting of 10% DMSO, 5% Tween 80, 85% H2O via i.p. injection three times per week for 4 weeks; the control group included animals treated with 100 μL of vehicle (10% DMSO, 5% Tween 80, 85% H2O). One control animal reached HEP and was sacrificed and was not account for in the analysis. […]
For the final statistics, the number of tumors analyzed was 8 in the control group (one animal died for unknown reasons as certified by the AWB designed veterinary) and 9 for the treated group (the volume of one tumor was considered outlier). Results were reported as tumor volume increase, normalizing the value of each measurement to the baseline value of each sample and expressed as mean ± SEM. […]

MDA MB 231 cells = test: Cell viability / cytotoxicity assay (cell counting); assay type: cell-based; details: Homo sapiens
Protocol: as §1, with “After 72 h incubation, cells were washed in PBS and harvested.” left out

MDA MB 468 cells = test: as above; assay type: cell-based; details: Homo sapiens
Protocol: as §1, with “After 72 h incubation, cells were washed in PBS and harvested.” left out

In the case of `CCCCc1cn(-c2ccc(NC(=O)Nc3ccccc3C(F)(F)F)cc2)nn1` [FHP01], the animal body weight ([1]; 45 mg/kg i.p. 3 times a week, all the treatment period) is reported as “No loss of animal body weight”, the “histology of liver, brain, spleen and kidney” value ([1]; after 4 weeks of i.p. treatment, 45 mg/kg) is reported as “did not show any sign of toxicity” and the IC50 (SKBR3 cells) is reported as 13.5 µM. The IC50 (T47D cells) was 10.6 µM, the IC50 at 72 h [2] was 28.7 µM and the IC50 (MCF7 cells) was 12.4 µM. For the same compound, the “effect on viability of normal PBMC” value (PBMCs) was “no effect”, the mean tumor volume ([3]; Day 0 of the treatment) was 25.49± 4.58 mm^3 and the mean tumor volume ([3]; Day 18, control 73.40 ± 9.72) was 24.18 ± 4.44 mm^3. For the same compound, the mean tumor volume ([3]; Day 28, control 129.85 ± 21.39) was 37.23 ± 11.45 mm^3, the “effect size, decrease in tumor growth (control/treated)” value ([3]; end of the procedure, 45 mg/kg i.p.) was “about 4 fold” and the IC50 (MDA MB 231 cells; MDA MB 231, 24h) was 13.3 µM. For the same compound, the IC50 (MDA MB 231 cells; MDA MB 231, 48h) was 4.14 µM, the IC50 (MDA MB 231 cells; MDA MB 231, 72 h) was 3.21 µM and the IC50 (MDA MB 468 cells; MDA MB 468, 24h) was 12.7 µM. The IC50 (MDA MB 468 cells; MDA MB 468, 48h) was 3.48 µM and the IC50 (MDA MB 468 cells; MDA MB 468, 72 h) was 3.06 µM.
